# The source made the active and inactive calls.
# Experiments:
# [1] = biological target: 5-hydroxytryptamine receptor 5A (Homo sapiens, UniProt P47898); experiment: Counterscreen for agonists of OPRM1-OPRD1 heterodimerization: luminescence-based cell-based high throughput dose response assay to identify agonists of 5-hydroxytryptamine (serotonin) 5A receptor (HTR5A). [Related pubchem assays (depositor defined):AID504326, AID504355, AID504692, AID504904, AID504905]; assay type: functional
# [2] = biological target: Delta-type opioid receptor (Homo sapiens, UniProt P41143); experiment: Counterscreen for agonists of heterodimerization of the mu 1 (OPRM1) and delta 1 (OPRD1) opioid receptors: Luminescence-based cell-based high throughput dose response assay to identify agonists of OPRD1 homodimerization. [Related pubchem assays (depositor defined):AID504326, AID504355, AID504692, AID504904, AID504905]; assay type: functional
# Mu-type opioid receptor = Mu-type opioid receptor (Homo sapiens, UniProt P35372); experiment: Counterscreen for agonists of heterodimerization of the mu 1 (OPRM1) and delta 1 (OPRD1) opioid receptors: Luminescence-based cell-based high throughput dose response assay to identify agonists of OPRM1 homodimerization.; assay type: functional;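 note: U2OS cells expressing OPRM1 and beta-arrestin as split beta-galactosidase partners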
# Cytochrome P450 2C9 = Cytochrome P450 2C9 (Homo sapiens, UniProt P11712)
# [3] = biological target: T1, Ubiquitin-conjugating enzyme E2 N (Homo sapiens, UniProt P61088); assay type: functional
# T1 sequence (P61088 whole entry): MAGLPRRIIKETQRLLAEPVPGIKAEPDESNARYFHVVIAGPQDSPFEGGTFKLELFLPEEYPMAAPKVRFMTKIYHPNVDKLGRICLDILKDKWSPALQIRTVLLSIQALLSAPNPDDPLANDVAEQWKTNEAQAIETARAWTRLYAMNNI
# [4] = biological target: T1, Ubiquitin-conjugating enzyme E2 N; assay type: functional; remark: listed apart in the source
# Bcl-2-related protein A1 = biological target: T2, Bcl-2-related protein A1 (Mus musculus, UniProt Q07440); assay type: functional;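 note: confirmatory dose–response counterscreen on Bfl-1, used to check hits from a UBC13 polyubiquitin inhibitor campaign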
# T2 sequence (Q07440 whole entry): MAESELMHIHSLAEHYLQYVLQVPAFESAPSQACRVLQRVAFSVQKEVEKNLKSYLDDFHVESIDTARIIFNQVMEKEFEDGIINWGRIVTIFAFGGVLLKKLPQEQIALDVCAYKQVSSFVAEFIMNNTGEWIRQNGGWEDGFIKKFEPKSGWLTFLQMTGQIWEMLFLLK
# [5] = biological target: T3, Endoribonuclease toxin MazF (Escherichia coli K-12, UniProt P0AE70); experiment: activation of MazEF endoribonuclease cleavage – biochemical, fluorescence, single-stranded RNA substrate, uHTS hits, dose response (AID 588481); assay type: functional
# T3 sequence (P0AE70 whole entry): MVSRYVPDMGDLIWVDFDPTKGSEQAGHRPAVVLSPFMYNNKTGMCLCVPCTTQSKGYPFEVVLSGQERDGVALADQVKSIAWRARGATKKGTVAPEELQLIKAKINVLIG
# [6] = tested on: Streptococcus sp. 'group A'; experiment: Streptococcus pyogenes SK(-)GAS viability under kanamycin – luminescence, BacTiterGlo, confirmation, counter-screen for streptokinase expression inhibitor project, dose response (AID 1900); assay type: functional, organism-based
# [7] = biological target: T4, RNA-binding protein pos-1 (Caenorhabditis elegans, UniProt G5EF15); experiment: disruptors of C. elegans POS-1 RNA interaction – biochemical, fluorescence polarization, dose response (AID 1964);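 note: purified POS-1 fused to maltose binding protein made in E. coli; potency of compounds blocking POS-1 binding to fluorescent RNA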
# T4 sequence (G5EF15 whole entry): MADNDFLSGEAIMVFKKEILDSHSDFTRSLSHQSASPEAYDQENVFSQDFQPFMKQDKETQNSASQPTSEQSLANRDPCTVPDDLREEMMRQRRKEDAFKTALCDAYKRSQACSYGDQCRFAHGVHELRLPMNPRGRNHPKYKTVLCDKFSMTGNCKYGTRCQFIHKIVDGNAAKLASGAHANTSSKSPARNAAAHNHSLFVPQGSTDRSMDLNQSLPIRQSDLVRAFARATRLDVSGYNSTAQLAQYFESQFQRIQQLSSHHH
# [8] = A Cell Based Secondary Assay To Explore Cytotoxicity of Compounds that Sensitize Mycobacterium Tuberculosis to Beta-Lactam Antibiotics.; assay type: functional
# [9] = biological target: T5, Zinc finger protein mex-5 (Caenorhabditis elegans, UniProt Q9XUB2); experiment: potency of MEX-5 RNA-binding blockers – biochemical, C. elegans, fluorescence polarization, dose response (AID 1960)
# T5 sequence (Q9XUB2 whole entry): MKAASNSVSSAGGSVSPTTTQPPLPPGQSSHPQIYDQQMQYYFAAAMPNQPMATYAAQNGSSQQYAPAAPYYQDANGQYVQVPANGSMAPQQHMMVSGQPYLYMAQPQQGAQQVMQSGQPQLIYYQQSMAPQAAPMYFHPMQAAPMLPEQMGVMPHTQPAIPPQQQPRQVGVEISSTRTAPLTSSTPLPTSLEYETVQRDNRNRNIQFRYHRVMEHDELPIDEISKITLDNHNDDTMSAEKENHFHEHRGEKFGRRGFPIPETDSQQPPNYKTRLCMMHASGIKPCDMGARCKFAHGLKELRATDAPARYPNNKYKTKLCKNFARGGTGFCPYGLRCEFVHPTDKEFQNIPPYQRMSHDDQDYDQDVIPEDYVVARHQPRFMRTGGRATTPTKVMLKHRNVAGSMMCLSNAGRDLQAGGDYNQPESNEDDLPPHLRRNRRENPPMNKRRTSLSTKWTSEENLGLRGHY
# Streptokinase A = biological target: T6, Streptokinase A (Streptococcus pyogenes serotype M1, UniProt P10520); experiment: viability-normalized secreted streptokinase activity reduction – plasminogen activation absorbance, OD405, dose response (AID 1914); assay type: functional, Streptococcus pyogenes M1 GAS;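 note: secreted streptokinase activity via plasminogen activation per viability signal from cell pellet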
# T6 sequence (P10520 whole entry): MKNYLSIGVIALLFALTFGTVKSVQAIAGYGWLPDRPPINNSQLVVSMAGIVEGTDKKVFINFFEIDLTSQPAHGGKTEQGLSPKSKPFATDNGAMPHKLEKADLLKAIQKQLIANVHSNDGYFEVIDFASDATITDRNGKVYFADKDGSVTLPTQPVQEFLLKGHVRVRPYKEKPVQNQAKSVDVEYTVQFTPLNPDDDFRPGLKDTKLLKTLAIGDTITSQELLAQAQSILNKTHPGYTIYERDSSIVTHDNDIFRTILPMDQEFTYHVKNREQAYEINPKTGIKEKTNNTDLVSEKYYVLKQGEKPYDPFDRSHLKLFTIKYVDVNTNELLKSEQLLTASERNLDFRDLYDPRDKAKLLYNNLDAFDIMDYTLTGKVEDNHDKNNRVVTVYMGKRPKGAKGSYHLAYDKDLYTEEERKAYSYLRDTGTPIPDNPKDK
# Streptococcus = experiment: GAS UMAA2166 growth inhibition – luminescence, BacTiterGlo, counter-screen for streptokinase expression inhibitor project, dose response (AID 1915); assay type: functional, organism-based;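 note: potency for reduction of bacterial viability or growth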
# [10] = biological target: T3, Endoribonuclease toxin MazF; experiment: substrate-only fluorescence increase artefacts – biochemical, single-stranded RNase substrate, counter-screen for MazEF activator project, dose response (AID 588502); assay type: functional
# [11] = biological target: T7, Calpain-2 catalytic subunit (Sus scrofa, UniProt P43367); experiment: m-calpain protease blockers, concentration series – biochemical, fluorogenic peptide substrate, dose response (AID 1420); assay type: functional
# T7 sequence (P43367 whole entry): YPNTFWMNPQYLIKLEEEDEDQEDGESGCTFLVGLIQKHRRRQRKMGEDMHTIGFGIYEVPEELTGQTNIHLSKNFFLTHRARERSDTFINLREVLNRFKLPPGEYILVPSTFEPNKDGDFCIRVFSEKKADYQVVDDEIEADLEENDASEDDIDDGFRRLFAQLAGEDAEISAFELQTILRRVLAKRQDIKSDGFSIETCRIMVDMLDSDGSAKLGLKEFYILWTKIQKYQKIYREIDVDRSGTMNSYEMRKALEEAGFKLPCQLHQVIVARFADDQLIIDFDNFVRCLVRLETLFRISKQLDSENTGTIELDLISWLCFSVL
# ORF 73 = biological target: T8, ORF 73 (Human herpesvirus 8, UniProt O40947); experiment: KSHV LANA DNA-binding disruption – biochemical, fluorescence polarization, cherry-picked samples, dose response (AID 504725); parameters: species or system Human gammaherpesvirus 8;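 note: fluorescence polarization of a labeled DNA duplex reporting LANA DNA binding; potency is for inhibitors that block LANA binding to the DNA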
# T8 sequence (O40947 whole entry): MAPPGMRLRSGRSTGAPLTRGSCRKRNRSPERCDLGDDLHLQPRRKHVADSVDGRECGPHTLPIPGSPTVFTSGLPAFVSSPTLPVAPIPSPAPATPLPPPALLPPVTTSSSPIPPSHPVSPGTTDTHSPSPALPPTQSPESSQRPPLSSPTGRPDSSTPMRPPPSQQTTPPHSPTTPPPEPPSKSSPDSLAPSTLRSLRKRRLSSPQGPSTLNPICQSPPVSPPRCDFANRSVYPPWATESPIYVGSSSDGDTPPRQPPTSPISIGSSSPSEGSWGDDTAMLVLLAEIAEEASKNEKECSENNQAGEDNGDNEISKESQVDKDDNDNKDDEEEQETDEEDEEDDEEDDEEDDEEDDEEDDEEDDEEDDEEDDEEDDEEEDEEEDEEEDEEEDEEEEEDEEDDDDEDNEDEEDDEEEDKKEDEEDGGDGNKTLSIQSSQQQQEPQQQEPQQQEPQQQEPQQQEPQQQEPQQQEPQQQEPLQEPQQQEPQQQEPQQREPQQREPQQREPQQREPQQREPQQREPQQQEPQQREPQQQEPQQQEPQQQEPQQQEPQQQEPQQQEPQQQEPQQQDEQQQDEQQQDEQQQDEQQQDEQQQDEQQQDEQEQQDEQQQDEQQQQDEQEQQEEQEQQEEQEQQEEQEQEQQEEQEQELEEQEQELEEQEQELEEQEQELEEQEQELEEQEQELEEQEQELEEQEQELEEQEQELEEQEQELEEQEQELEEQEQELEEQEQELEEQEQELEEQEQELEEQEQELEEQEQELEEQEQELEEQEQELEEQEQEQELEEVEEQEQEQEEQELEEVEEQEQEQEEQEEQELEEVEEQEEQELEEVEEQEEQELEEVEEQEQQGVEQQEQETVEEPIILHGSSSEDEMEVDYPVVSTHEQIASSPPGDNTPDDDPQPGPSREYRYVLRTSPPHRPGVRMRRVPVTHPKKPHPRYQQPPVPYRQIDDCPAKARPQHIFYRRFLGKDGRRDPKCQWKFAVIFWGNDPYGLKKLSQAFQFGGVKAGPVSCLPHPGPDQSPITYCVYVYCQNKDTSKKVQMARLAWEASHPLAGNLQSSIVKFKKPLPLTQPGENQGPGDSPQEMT
# [12] = biological target: T9, Short transient receptor potential channel 4 (Mus musculus, UniProt Q9QUQ5); experiment: calcium entry via TRPC4 opening agents – cell-based, HEK293 TRPC4/mu-opioid, Fluo-4 calcium, dose response (AID 434937); assay type: functional
# T9 sequence (Q9QUQ5 whole entry): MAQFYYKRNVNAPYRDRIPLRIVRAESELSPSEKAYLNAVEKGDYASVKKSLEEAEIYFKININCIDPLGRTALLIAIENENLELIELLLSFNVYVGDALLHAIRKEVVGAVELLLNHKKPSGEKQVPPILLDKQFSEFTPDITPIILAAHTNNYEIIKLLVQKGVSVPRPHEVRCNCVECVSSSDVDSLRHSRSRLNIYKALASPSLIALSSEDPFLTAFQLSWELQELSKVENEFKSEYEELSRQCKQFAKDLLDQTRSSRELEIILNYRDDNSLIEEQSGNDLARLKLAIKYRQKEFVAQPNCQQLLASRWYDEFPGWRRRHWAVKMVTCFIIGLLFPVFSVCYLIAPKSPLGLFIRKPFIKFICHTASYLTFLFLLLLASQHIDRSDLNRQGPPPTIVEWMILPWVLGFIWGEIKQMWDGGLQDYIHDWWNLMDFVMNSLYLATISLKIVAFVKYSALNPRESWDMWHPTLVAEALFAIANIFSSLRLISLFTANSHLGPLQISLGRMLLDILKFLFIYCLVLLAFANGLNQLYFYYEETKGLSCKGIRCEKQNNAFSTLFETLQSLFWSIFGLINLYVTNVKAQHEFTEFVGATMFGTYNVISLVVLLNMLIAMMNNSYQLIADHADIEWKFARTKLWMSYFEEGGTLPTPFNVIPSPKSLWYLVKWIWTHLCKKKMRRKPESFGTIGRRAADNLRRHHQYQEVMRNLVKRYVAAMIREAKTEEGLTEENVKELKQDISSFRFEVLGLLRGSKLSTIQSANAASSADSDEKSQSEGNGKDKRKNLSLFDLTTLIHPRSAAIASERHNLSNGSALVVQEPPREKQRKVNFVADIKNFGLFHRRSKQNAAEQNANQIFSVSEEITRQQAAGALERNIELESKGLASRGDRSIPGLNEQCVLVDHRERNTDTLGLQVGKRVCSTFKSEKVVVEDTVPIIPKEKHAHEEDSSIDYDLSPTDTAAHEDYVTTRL
# Chain of Delta-type opioid receptor (P41143 whole entry): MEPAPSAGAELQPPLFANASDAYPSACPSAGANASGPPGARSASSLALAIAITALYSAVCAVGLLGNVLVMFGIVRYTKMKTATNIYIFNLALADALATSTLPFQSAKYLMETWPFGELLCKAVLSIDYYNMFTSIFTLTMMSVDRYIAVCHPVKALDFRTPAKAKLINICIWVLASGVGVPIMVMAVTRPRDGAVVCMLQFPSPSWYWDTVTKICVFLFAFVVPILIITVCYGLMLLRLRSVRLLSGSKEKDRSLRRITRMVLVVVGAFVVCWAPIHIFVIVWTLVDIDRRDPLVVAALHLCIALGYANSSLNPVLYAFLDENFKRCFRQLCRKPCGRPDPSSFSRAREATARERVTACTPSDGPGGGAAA
# Chain of 5-hydroxytryptamine receptor 5A (P47898 whole entry): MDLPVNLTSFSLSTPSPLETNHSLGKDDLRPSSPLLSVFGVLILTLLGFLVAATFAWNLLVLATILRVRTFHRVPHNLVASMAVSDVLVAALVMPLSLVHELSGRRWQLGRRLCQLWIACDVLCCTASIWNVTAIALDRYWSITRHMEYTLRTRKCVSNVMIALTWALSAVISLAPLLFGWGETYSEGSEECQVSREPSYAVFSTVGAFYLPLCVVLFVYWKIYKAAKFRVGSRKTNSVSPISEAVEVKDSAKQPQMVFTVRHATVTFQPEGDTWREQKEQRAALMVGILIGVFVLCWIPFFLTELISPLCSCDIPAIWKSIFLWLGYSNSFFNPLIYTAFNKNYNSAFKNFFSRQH
# Chain of Mu-type opioid receptor (P35372 whole entry): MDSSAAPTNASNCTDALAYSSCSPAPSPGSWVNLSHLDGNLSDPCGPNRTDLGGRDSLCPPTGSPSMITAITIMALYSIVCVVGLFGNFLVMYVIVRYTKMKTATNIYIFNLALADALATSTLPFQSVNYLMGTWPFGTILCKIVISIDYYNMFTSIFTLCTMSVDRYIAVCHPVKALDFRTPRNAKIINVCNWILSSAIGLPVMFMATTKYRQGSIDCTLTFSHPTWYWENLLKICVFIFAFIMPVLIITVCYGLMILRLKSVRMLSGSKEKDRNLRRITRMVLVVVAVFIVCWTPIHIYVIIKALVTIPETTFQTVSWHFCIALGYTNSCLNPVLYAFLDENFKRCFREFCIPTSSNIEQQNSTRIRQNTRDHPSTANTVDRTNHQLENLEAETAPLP
# Chain of Cytochrome P450 2C9 (P11712 whole entry): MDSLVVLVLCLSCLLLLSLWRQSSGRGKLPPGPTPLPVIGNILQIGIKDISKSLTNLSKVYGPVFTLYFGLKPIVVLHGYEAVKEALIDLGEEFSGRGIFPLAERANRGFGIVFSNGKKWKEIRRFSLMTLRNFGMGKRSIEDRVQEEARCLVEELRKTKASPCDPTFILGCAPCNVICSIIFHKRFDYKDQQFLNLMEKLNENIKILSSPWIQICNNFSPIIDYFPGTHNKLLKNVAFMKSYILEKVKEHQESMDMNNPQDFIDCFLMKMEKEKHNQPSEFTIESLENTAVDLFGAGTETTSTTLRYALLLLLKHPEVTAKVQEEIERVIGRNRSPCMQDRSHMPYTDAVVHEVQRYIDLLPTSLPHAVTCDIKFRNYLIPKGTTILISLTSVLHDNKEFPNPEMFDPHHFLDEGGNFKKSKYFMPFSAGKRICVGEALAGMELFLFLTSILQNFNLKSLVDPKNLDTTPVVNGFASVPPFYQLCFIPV
SMILES,EC50 [1],EC50 [2],EC50 (Mu-type opioid receptor),IC50 [3],IC50 [4],IC50 (Bcl-2-related protein A1),further results
COc1cc(C2C(C#N)=C(N)N(c3sc4c(c3C#N)CCCC4)C3=C2C(=O)CC(C)(C)C3)cc(OC)c1OC (centres undefined),> 92.5 µM (inactive),> 92.5 µM (inactive),> 92.5 µM (inactive),–,–,–,AC50 (Cytochrome P450 2C9): 12.6 µM (inconclusive)
COc1cccc(NC(=O)CSc2nc3ccccc3c(=O)n2Cc2cccs2)c1,–,–,–,> 20 µM (inactive),19.3 µM (active),> 20 µM (inactive),–
CC1=Nc2ccccc2/C1=C\c1nc(-c2ccc(F)cc2)oc1O,–,–,–,–,–,–,EC50 [5]: > 99 µM (inactive); EC50 [6]: 8.82 µM (active); EC50 [7]: > 300 µM (not active); CC50 [8]: > 40 µM (active); EC50 [9]: 5.53 µM (active); EC50 (Streptokinase A): 16.6 µM (active); EC50 (Streptococcus): > 150 µM (not active); EC50 [10]: 55.9 µM (inactive)
CN(C)C(CNC(C(=O)Nc1ccc([N+](=O)[O-])cc1Br)c1ccccc1)c1ccccc1 (centres undefined),> 92.5 µM (inactive),> 92.5 µM (inactive),> 92.5 µM (inactive),–,–,–,IC50 [11]: 4.94 µM (not active)
Cc1cc(O)c2c(n1)c(C)cc1[nH]c(C)c(C)c12,–,–,–,–,–,–,AC50 (ORF 73): 42.3 µM (active)
C#CCOCCOCCOCCNc1nc(N2CCN(C(=O)[C@H](CCCCN)n3cc(CN)nn3)CC2)nc(N2CCN(C(=O)[C@H](CCCCN)n3cc([C@@H](N)[C@H](C)CC)nn3)CC2)n1,–,–,–,3.13 µM (active),4.49 µM (active),> 20 µM (inactive),–
CCC(=O)C(CCN1CCOCC1)(c1ccccc1)c1ccccc1,> 92.5 µM (inactive),> 92.5 µM (inactive),12 µM (inactive),–,–,–,EC50 [12]: 0.376 µM (active)
CCOC(=O)C1(Cc2ccccc2)CCN(Cc2cccn2-c2cccnc2)CC1,> 92.5 µM (inactive),> 92.5 µM (inactive),> 92.5 µM (inactive),–,–,–,EC50 [12]: 0.841 µM (active)
Cc1nc(N)sc1C(=O)N/N=C/c1cccnc1,–,–,–,1.89 µM (active),1.68 µM (active),> 20 µM (inactive),–

# Reference: ChEMBL document CHEMBL1201862, “PubChem BioAssay data set” (2004)
